The results in this text go back to US11845724B2, “USP30 inhibitors and uses thereof” (Vincere Biosciences, Inc., priority 2019, dated 2023).

For orientation: IC50 means the concentration needed to halve the response being measured. As usually defined, the pIC50 is the negative decadic logarithm of the IC50, by convention in mol/L. Read a low pIC50 as a large IC50.

pIC50: −log10 of the molar value. Where “and” joins values, the source holds several entries; their conditions need not be identical. Identical values can stand only once. Like-named read-outs stand apart in the source and are kept apart here.

The target of assay [1] is recombinant USP30 (amino acids 57-517 of the human sequence) (Homo sapiens (Human), UniProt Q70CQ3). The assay is described as follows: In vitro USP30 biochemical assay (Ubiquitin-Rhodamine).
recombinant USP30 (amino acids 57-517 of the human sequence), sequence (Q70CQ3 57-517): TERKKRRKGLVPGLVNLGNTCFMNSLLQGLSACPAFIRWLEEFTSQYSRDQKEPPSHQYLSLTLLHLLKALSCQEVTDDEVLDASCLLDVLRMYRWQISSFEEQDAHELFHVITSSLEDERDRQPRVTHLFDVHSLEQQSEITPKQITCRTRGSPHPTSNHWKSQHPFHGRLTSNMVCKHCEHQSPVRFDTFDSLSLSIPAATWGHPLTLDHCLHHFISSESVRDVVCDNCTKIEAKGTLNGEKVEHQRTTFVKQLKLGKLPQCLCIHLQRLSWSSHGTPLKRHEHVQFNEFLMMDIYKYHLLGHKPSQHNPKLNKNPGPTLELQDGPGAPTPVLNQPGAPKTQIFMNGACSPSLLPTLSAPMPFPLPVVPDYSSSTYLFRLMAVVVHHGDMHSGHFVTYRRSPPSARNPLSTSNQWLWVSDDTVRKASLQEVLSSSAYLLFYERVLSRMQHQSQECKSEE
In assay [2] the test system is differentiated RenCell VM. Briefly: In-cell Tom20 loss assay. The conditions noted are these: 20 h after compound addition. The assay is classed as cell-based. The method, then:
To evaluate Tom20 loss following treatment with compounds and/or antimycin/oligomycin, a96-well plate assay was performed on differentiated RenCell VM. These were seeded into laminin-coated 96-well plates at 5000 cells/well in normal growth medium (ReNcell NSC maintenance medium+20 ng/ml FDF-2 and 20 ng/ml EGF). After 3 days, growth medium was replaced with differentiation medium (ReNCell NSC medium+0.1 mM dibutyryl cAMP and 2 ng/ml GDNF). On days 1 and 4 following addition of differentiation medium, the media was removed and replaced with fresh differentiation medium. On the 7th day compounds or DMSO were added, and 1 hour later, some wells also received additions of oligomycin (1 uM and antimycin (1 uM). 20 h after compound addition, cells were fixed by adding formaldehyde to a final concentration of […], incubated 20 minutes at room temperature, then washed with PBS. Blocking buffer (3% bovine serum albumin, 2% fetal bovine serum, 0.2% Triton X100 in PBS) was added to all wells for two hours, then removed and replaced with blocking buffer containing antibody against Tom20 overnight. After washing with PBS, secondary antibody (Donkey anti-mouse conjugated to Cy3) was added along with DAPI to mark nuclei, and incubated two hours. After again washing with PBS, cells were imaged using GE INCell 6000 at 40× and quantified using HCA-based quantification algorithm of fluorescence density×area normalized to the number of nuclei.

Assay [3] addresses T1, USP30 (Homo sapiens (Human), UniProt Q70CQ3). The assay is described as follows: Dundee MALDI-TOF mass spectrometry assay (IC50). Particulars: USP30 25 ng/μl, K48-linked diubiquitin 5.6 μM. Format: biochemical. In a few lines: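 USP30 (25 ng/μl) preincubated with compound 5 min at RT in Tris/BSA/DTT buffer, then K48-linked diubiquitin (5.6 μM) added for 45 min at RT. Stopped with 2% TFA; cleavage quantified by MALDI-TOF mass spectrometry to give IC50.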

For assay [4], the target named is T1, USP30. The assay is described as follows: Dundee MALDI-TOF mass spectrometry assay (% DUB activity remaining at 1 μM). The assay is classed as biochemical. The conditions noted are these: % DUB activity remaining at compound concentration of 1 μM; avg; read-out: Dundee % Activity at 1 μM (avg in vitro MS assay). The method, then: Compounds were tested in a MALDI-TOF assay based on the paper by Ritorto et al. (Ritorto et al. Screening of DUB activity and specificity by MALDI-TOF mass spectrometry. Nat. Commun. 5:4763).
USP30 (25 ng/μl) tested against K48-linked diubiquitin (5.6 μM). USP30 was diluted in a buffer containing 40 mM Tris, 0.01% BSA, 1 mM DTT and K48 in 40 mM Tris, 0.01% BSA.
The compounds were pre-incubated with the USP30 for 5 mins at room temp before the K48 dimer addition. The assay mixture was then incubated for 45 mins at room temp. The assay was stopped by the addition of TFA to a final concentration of 2% (v/v).
Acidified samples of the DUB assays were mixed with 0.5 mM 15N-ubiquitin and then with one part of 2% (v/v) TFA and one part of 2,5 DHAP matrix solution (7.6 mg of 2,5 DHAP in […] ethanol and […] of an aqueous 12 mg ml 1 diammonium hydrogen citrate). Then 250 nl of these solutions were spotted onto an MTP AnchorChip 1,536 TF and this is analysed on the Bruker rapifleX MALDI-TOF.
Table 22 presents the Dundee MALDI-TOF values expressed as % DUB activity remaining at a compound concentration of 1 μM.

Setting [5] is: read-out: USP30 IC50 μM (avg), Ubiquitin-Rhodamine substrate 25 nM, 1.5 nM recombinant USP30.
The mark [6] stands for this setting: avg, read-out: Dundee IC50 μM (avg in vitro MS assay).
The mark [7] stands for this setting: USP30 IC50 μM (avg), Ubiquitin-Rhodamine substrate 25 nM, 1.5 nM recombinant USP30.
[8] abbreviates: Dundee IC50 μM (avg in vitro MS assay).

T1 sequence (Q70CQ3 whole entry): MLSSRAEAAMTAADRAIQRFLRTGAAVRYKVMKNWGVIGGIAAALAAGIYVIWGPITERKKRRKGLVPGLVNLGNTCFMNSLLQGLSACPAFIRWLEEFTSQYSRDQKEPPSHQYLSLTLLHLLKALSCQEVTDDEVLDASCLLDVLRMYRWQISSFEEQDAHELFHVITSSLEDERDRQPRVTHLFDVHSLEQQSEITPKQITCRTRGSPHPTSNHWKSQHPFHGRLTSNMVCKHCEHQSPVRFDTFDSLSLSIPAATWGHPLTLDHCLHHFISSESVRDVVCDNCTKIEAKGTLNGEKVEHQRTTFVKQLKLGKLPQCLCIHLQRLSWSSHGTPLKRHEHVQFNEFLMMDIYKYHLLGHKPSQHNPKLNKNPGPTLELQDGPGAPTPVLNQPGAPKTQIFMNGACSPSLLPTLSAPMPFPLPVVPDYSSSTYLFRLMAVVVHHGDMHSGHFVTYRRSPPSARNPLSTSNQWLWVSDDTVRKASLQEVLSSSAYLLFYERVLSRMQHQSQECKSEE

On to `O=C(N[C@@H](Cc1ccccc1)C(=O)Nc1ccc(S(=O)(=O)N[C@@H]2CCOC2)cc1)c1ccc(F)cc1` [Compound I-175, 4-fluoro-N-((S)-1-oxo-3-phenyl-1-(4-(N-((R)-tetrahydrofuran-3-yl)sulfamoyl)phenylamino)propan-2-yl)benzamide], for which the IC50 in assay [1] (setting [5]) is less than 0.05 µM. Moreover, the pIC50 in assay [2] was not below 6.30.
Turning to `CC(C)(CO)NS(=O)(=O)c1ccc(NC(=O)[C@H](Cc2ccccc2)NC(=O)c2ccc(F)cc2)cc1` [Compound I-137, (S)-4-fluoro-N-(1-(4-(N-(1-hydroxy-2-methylpropan-2-yl)sulfamoyl)phenylamino)-1-oxo-3-phenylpropan-2-yl)benzamide], the IC50 in assay [1] (setting [5]) and in assay [3] (setting [6]) was less than 0.05 µM in each case. For the same compound, the pIC50 in assay [2] is not below 6.30.
On to `CN(C(=O)c1ccc(F)cc1)[C@@H](Cc1ccccc1)C(=O)Nc1ccc(S(=O)(=O)NC(C)(C)C)cc1` [Compound I-35, (S)-N-(1-(4-(N-tert-Butylsulfamoyl)phenylamino)-1-oxo-3-phenylpropan-2-yl)-4-fluoro-N-methylbenzamide], for which the activity at 1 µM in assay [4] was in the range of 0 to 25%. Besides, the IC50 is 0.05 to 1 µM and 1 to 10 µM in assay [1] (setting [7]); 0.05 to 1 µM in assay [3] (setting [6]).
`CC(C)(C)NS(=O)(=O)c1ccc(NC(=O)C2(NC(=O)c3ccc(F)cc3)Cc3ccccc3C2)cc1` [Compound I-19, N-(4-(N-tert-butylsulfamoyl)phenyl)-2-(4-fluorobenzamido)-2,3-dihydro-1H-indene-2-carboxamide]: the activity at 1 µM in assay [4] lay within 25 to 50%. For the same compound, the IC50 in assay [1] (setting [7]) and in assay [3] (setting [6]) was 0.05 to 1 µM each time.
For the compound `CC(C)(C)NS(=O)(=O)c1ccc(NC(=O)C2Cc3ccccc3CN2C(=O)c2ccc(F)cc2)cc1` (stereo not shown) [Compound I-22, N-(4-(N-tert-Butylsulfamoyl)phenyl)-2-(4-fluorobenzoyl)-1,2,3,4-tetrahydroisoquinoline-3-carboxamide], the activity at 1 µM in assay [4] fell in the range of 0 to 25%. For the same compound, the IC50 in assay [1] (setting [7]) was in the range of 1 to 10 µM; in assay [3] (setting [8]), 0.05 to 1 µM. In assay [2], this compound had a pIC50 of less than 5.00.
Consider `CC(C)(C)NC(c1ccc(NC(=O)[C@H](Cc2ccccc2)NC(=O)c2ccc(F)cc2)cc1)C(F)(F)F` (stereo partly drawn) [Compound I-18, N-((2S)-1-(4-(1-(tert-butylamino)-2,2,2-trifluoroethyl)phenylamino)-1-oxo-3-phenylpropan-2-yl)-4-fluorobenzamide], for which the activity at 1 µM in assay [4] lay within 50 to 75%. Besides, the IC50 in assay [1] (setting [5]) and in assay [3] (setting [8]) was more than 10 µM in each case.
As to `CN1CC(NS(=O)(=O)c2ccc(NC(=O)[C@H](Cc3ccccc3)NC(=O)c3ccc(F)cc3)cc2)C1` [Compound I-65, (S)-4-fluoro-N-(1-(4-(N-(1-methylazetidin-3-yl)sulfamoyl)phenylamino)-1-oxo-3-phenylpropan-2-yl)benzamide], the activity at 1 µM in assay [4] lay within 0 to 25%. The 50% inhibitory concentration (IC50) in assay [1] (setting [7]) and in assay [3] (setting [6]) was 0.05 to 1 µM throughout.
In the case of `Cc1cc(S(=O)(=O)NC(C)(C)C)ccc1NC(=O)[C@H](Cc1ccccc1)NC(=O)c1ccc(F)cc1` [Compound I-93, (S)-N-(1-(4-(N-tert-butylsulfamoyl)-2-methylphenylamino)-1-oxo-3-phenylpropan-2-yl)-4-fluorobenzamide], the results for the IC50 in assay [1] (setting [5]) and in assay [3] (setting [6]) were less than 0.05 µM and 0.05 to 1 µM, respectively. Also, in assay [2], the pIC50 is 6.00 to 6.30.
`O=C(N[C@@H](Cc1ccccc1)C(=O)Nc1ccc(S(=O)(=O)NC2CCOCC2)nc1)c1ccc(F)cc1` [Compound I-107, (S)-4-fluoro-N-(1-oxo-3-phenyl-1-(6-(N-(tetrahydro-2H-pyran-4-yl)sulfamoyl)pyridin-3-ylamino)propan-2-yl)benzamide]: the IC50 in assay [1] (setting [5]) and in assay [3] (setting [6]) was less than 0.05 µM in each case. In addition, the pIC50 in assay [2] is 6.00 to 6.30.
As for `O=C(N[C@@H](Cc1ccccc1)C(=O)Nc1ccc(S(=O)(=O)NC23CC(C2)C3)nc1)c1ccc(F)cc1` [Compound I-104, (S)-N-(1-(6-(N-bicyclo[1.1.1]pentan-1-ylsulfamoyl)pyridin-3-ylamino)-1-oxo-3-phenylpropan-2-yl)-4-fluorobenzamide], the IC50 was 0.05 to 1 µM in assay [1] (setting [7]) and less than 0.05 µM in assay [3] (setting [6]). In assay [2], this compound had a pIC50 not below 6.30.
Take `O=C(N[C@@H](Cc1ccccc1)C(=O)Nc1ccc(S(=O)(=O)NC2COC2)cc1)c1ccc(F)cc1` [Compound I-64, (S)-4-fluoro-N-(1-(4-(N-oxetan-3-ylsulfamoyl)phenylamino)-1-oxo-3-phenylpropan-2-yl)benzamide]: the activity at 1 µM in assay [4] lay within 0 to 25%. Further, the IC50 in assay [1] (setting [7]) was 0.05 to 1 µM; in assay [3] (setting [6]) it was less than 0.05 µM.
For the compound `O=C(N[C@@H](Cc1ccccc1)C(=O)Nc1ccc(S(=O)(=O)NC2CCOCC2)cc1)c1ccc(F)cc1` [Compound I-34, (S)-4-fluoro-N-(1-oxo-3-phenyl-1-(4-(N-(tetrahydro-2H-pyran-4-yl)sulfamoyl)phenylamino)propan-2-yl)benzamide], the half-maximal inhibitory concentration (IC50) in assay [1] (setting [5]) and in assay [3] (setting [6]) was less than 0.05 µM in each case. In assay [2], the pIC50 is not below 6.30.
As for `C[C@@H](NS(=O)(=O)c1ccc(NC(=O)[C@H](Cc2ccccc2)NC(=O)c2ccc(F)cc2)cc1)C(F)(F)F` [Compound I-26, 4-fluoro-N-((S)-1-oxo-3-phenyl-1-(4-(N-((R)-1,1,1-trifluoropropan-2-yl)sulfamoyl)phenylamino)propan-2-yl)benzamide], the activity at 1 µM in assay [4] was 0 to 25%. In addition, the IC50 in assay [1] (setting [7]) was 0.05 to 1 µM; in assay [3] (setting [6]) it was less than 0.05 µM.
For `O=C(N[C@@H](Cc1ccccc1)C(=O)Nc1cccc2c(S(=O)(=O)NC3COC3)cccc12)C1CCCCC1` [Compound I-130, (S)-N-(1-(5-(N-oxetan-3-ylsulfamoyl)naphthalen-1-ylamino)-1-oxo-3-phenylpropan-2-yl)cyclohexanecarboxamide], the concentration for half-maximal inhibition (IC50) in assay [1] (setting [7]) and in assay [3] (setting [6]) was 0.05 to 1 µM each time. In assay [2], the pIC50 is less than 5.00.
As for `CC(C)(C)NS(=O)(=O)c1ccc(NC(=O)C2Cc3cnccc3CN2C(=O)c2ccc(F)cc2)cc1` (stereo not shown) [Compound I-50, N-(4-(N-tert-butylsulfamoyl)phenyl)-2-(4-fluorobenzoyl)-1,2,3,4-tetrahydro-2,6-naphthyridine-3-carboxamide], the activity at 1 µM in assay [4] lay within 50 to 75%. The IC50 in assay [1] (setting [7]) and in assay [3] (setting [6]) was 1 to 10 µM throughout.
For the compound `CCNS(=O)(=O)c1ccc(NC(=O)[C@H](Cc2ccccc2)N(C)C(=O)c2ccc(F)cc2)cc1` [Compound I-51, (S)-N-(1-(4-(N-ethylsulfamoyl)phenylamino)-1-oxo-3-phenylpropan-2-yl)-4-fluoro-N-methylbenzamide], in assay [4], the activity at 1 µM was more than 75%. Besides, the IC50 in assay [1] (setting [7]) and in assay [3] (setting [6]) was 1 to 10 µM throughout.
Turning to `O=C(N[C@@H](Cc1ccccc1)C(=O)Nc1ccc(S(=O)(=O)NC23CC(C2)C3)cc1)c1ccc(F)cc1` [Compound I-11, (S)-N-(1-(4-(N-Bicyclo[1.1.1]pentan-1-ylsulfamoyl)phenylamino)-1-oxo-3-phenylpropan-2-yl)-4-fluorobenzamide], the IC50 in assay [1] (setting [7]) is 0.05 to 1 µM; in assay [1] (setting [5]), 0.05 to 1 µM; in assay [3] (setting [6]), < 0.05 µM and 0.05 to 1 µM. The compound also showed a negative-log IC50 (pIC50) in assay [2] not below 6.30.
In the case of `O=C(N[C@@H](Cc1ccccc1)C(=O)Nc1ccc(S(=O)(=O)NC2CCCC2)cc1)c1cccnc1` [Compound I-80, (S)-N-(1-(4-(N-cyclopentylsulfamoyl)phenylamino)-1-oxo-3-phenylpropan-2-yl)nicotinamide], the IC50 in assay [1] (setting [7]) and in assay [3] (setting [6]) was 0.05 to 1 µM each time. In addition, in assay [2], the pIC50 was 5.00 to 6.00.
